The values below come from ChEMBL document CHEMBL1139889, “Identification and characterization of a library of microheterogeneous cyclohexadepsipeptides from the fungus Isaria” (J Nat Prod, 2007).

Peptide text beside a SMILES is read from it.

Series [1] concerns Plasmodium falciparum. The series is described as follows: Growth inhibition of Plasmodium falciparum 3D7 in erythrocytes by [3H]hypoxanthine uptake. It counts as functional, organism-based.
Series [2] can be described thus: Toxicity against human erythrocytes assessed as lysis at 300 uM. It counts as cell-based. As to conditions: erythrocyte.
A short description of series [3]: Toxicity against human erythrocytes assessed as lysis at 600 uM. It counts as cell-based. The following applies: erythrocyte.

In series [1], `CC(C)CC1OC(=O)CCNC(=O)[C@H](Cc2ccccc2)N(C)C(=O)[C@H](C(C)C)N(C)C(=O)[C@H](Cc2ccccc2)NC(=O)[C@@H]2CCCN2C1=O` (stereo partly specified) [ISARIDINE A] (HELM PEPTIDE1{F.[meV].[meF].[bAla].[CC(C)CC(O[*:1])C(=O)[*:2]].P}$PEPTIDE1,PEPTIDE1,1:R1-6:R2$$$V2.0) returned an IC50 of 230 µM. Also, the Activity entry in series [2] and in series [3] was “Non-toxic” throughout.

Take `CCCCCCC1CC(=O)NCC(=O)N[C@@H](C(C)C)C(=O)N[C@H](CC(C)C)C(=O)N[C@@H](C)C(=O)N[C@@H](C(C)C)C(=O)O1` (stereo partly specified) [ISARIIN B]: 118 µM corresponded to half-maximal inhibition in series [1] (IC50). In addition, the Activity entry in series [2] and in series [3] was “Non-toxic” throughout.
